Publication PMC5109907, “Enhancing succinic acid biosynthesis in Escherichia coli by engineering its global transcription factor, catabolite repressor/activator (Cra)” (Scientific Reports, 2016)

B1: aceBAK 18-bp Cra site (dsDNA)
DNA 1: TCGTTAAGCGATTCAGCA
DNA 2: TGCTGAATCGCTTAACGA

How the values were obtained:
[1] = target: T1, Cra (catabolite repressor/activator) (Escherichia coli, UniProt P0ACP1, R57K/A58T/G59N/R60Q/S75H/D148I/R149I, form not given); experiment: isothermal titration calorimetry, one-site fit; type: binding; conditions: 25 °C; 15 μM protein, 50 mM FBP injected; Tang1544 mutant
T1 construct: full-length, His6-tagged (tag encoded by the 3' primer, C-terminal), pET28a, expressed in E. coli BL21, Ni resin

[2] = target: T2, Cra (catabolite repressor/activator) (Escherichia coli, UniProt P0ACP1); experiment: isothermal titration calorimetry, one-site fit; type: binding; conditions: 25 °C; 15 μM protein, 50 mM FBP injected
T2 construct: full-length, His6-tagged (tag encoded by the 3' primer, C-terminal), pET28a, expressed in E. coli BL21, Ni resin

[3] = target: T3, Cra (catabolite repressor/activator) (Escherichia coli, UniProt P0ACP1, R57K/A58G/G59Q/R60Q/S75H/D148I/R149I, form not given); experiment: isothermal titration calorimetry, one-site fit; type: binding; conditions: 25 °C; 15 μM protein, 50 mM FBP injected; Tang1541 mutant
T3 construct: full-length, His6-tagged (tag encoded by the 3' primer, C-terminal), pET28a, expressed in E. coli BL21, Ni resin

Cra mutant (Tang1544) = Cra mutant (Tang1544) (Escherichia coli, UniProt P0ACP1 1-334, R57K;A58T;G59N;R60Q;S75H;D148I;R149I); experiment: EMSA; no FBP; less free DNA than Tang1534; EMSA: 50 nM oligonucleotide mixture annealed in TE buffer, with or without 1 mM FBP, 15 min at 30 C, nondenaturing 10% polyacrylamide gel, ethidium bromide; binding salt and pH not stated; conditions: protein: recombinant; tags: His6; chain copies: 2; label: none (ethidium bromide stain); blunt
Cra wild type = Cra wild type (Escherichia coli, UniProt P0ACP1 1-334); experiment: EMSA; no FBP; EMSA: 50 nM oligonucleotide mixture annealed in TE buffer, with or without 1 mM FBP, 15 min at 30 C, nondenaturing 10% polyacrylamide gel, ethidium bromide; binding salt and pH not stated; conditions: protein: recombinant; tags: His6; chain copies: 4; label: none (ethidium bromide stain); blunt

| Molecule | Kd [1] [nM] | Kd [2] [nM] | Kd [3] [nM] | binding result (Cra mutant (Tang1544)) | binding result (Cra wild type) |
| --- | --- | --- | --- | --- | --- |
| O=P(O)(O)OC[C@H]1OC(O)(COP(=O)(O)O)[C@@H](O)[C@@H]1O (some centres unmarked) [FBP, fructose-1,6-bisphosphate] | 95 ± 24 | 1400 | 130 ± 37 |  |  |
| B1 |  |  |  | binds | binds |
